Counter-ions that a name gives are not always drawn. Like-named read-outs stand apart in the source and are kept apart here.
Key:
[1] = Cytotoxicity evaluation, MTT; assay type: cell-based, human; settings: HepG2 cells (hepatocarcinoma-derived, ATCC HB-8065); human HepG2 cells, 72 hours, MTT
Procedure: The aim of this assay was to evaluate the impact of metabolic activation of the tested compounds on cell viability.
A cytotoxicity evaluation was performed using the method reported in Emami S A et al., Iran J Basic Med Sci 2012; 15:807-11 to determine the cytotoxic concentrations 50% (CC50) and using doxorubicin as a cytotoxic reference compound. These assays were performed in human HepG2 cells. HepG2 cells were purchased from ATCC (ref HB-8065). These cells are a commonly used human hepatocarcinoma-derived cell line that has characteristics similar to those of primary hepatocytes. These cells express many hepatocyte-specific metabolic enzymes, thus enabling the cytotoxicity of tested product metabolites to be evaluated. Briefly, cells in 100 μl of complete RPMI medium [RPMI supplemented with 10% FCS, 1% 1-glutamine (200 mM), penicillin (100 U/ml), and streptomycin (100 μg/ml)] were inoculated into each well of 96-well plates and incubated at 37° C. in a humidified chamber in 6% CO2. After 24 hours, 100 μl of medium with test compound at various concentrations dissolved in DMSO (final concentration less than 0.5% v/v) was added, and the plates were incubated for 72 hours at 37° C. Duplicate assays were performed for each sample. Each well was microscopically examined for precipitate formation before the medium was aspirated from the wells. After aspiration, 100 μl of MTT solution (0.5 mg/ml in medium without FCS) were then added to each well. Cells were incubated for 2 hours at 37° C. MTT solution was removed, and DMSO (100 μl) was added to dissolve the resulting blue formazan crystals. Plates were shaken vigorously (300 rpm) for 5 min. The absorbance was measured at 570 nm with 630 nm as reference wavelength in a BIO-TEK ELx808 Absorbance Microplate Reader. DMSO was used as blank and doxorubicin (Sigma-Aldrich) as positive control. Cell viability was calculated as percentage of control (cells incubated without compound).

[2] = test system: T. brucei brucei AnTat 1.9; test: In vitro antitrypanosomal activity, Alamar Blue assay; assay type: cell-based, Trypanosoma brucei brucei; settings: Trypanosoma brucei, read-out: IC50 T. brucei brucei
Procedure: The effects of the tested compounds on the growth of T. brucei brucei were assessed using an Alamar Blue® assay described in B. Raz et al., Acta Trop. 1997, 68, 139. T. brucei brucei AnTat 1.9 (IMTA, Antwerpen, Belgium) was cultured in MEM with Earle's salts, supplemented according to the protocol disclosed in T. Baltz et al., EMBO J. 1985, 4, 1273, with the following modifications: 0.5 mM mercaptoethanol (Sigma-Aldrich), 1.5 mM 1-cysteine (Sigma-Aldrich), 0.05 mM bathocuproine sulfate (Sigma-Aldrich), and 20% heat-inactivated horse serum (Gibco, France) at 37° C. and 5% CO2. Samples were incubated at an average density of 2000 parasites/well in sterile 96-well plates (Fisher, France) with various concentrations of compounds dissolved in 0.9% NaCl. All doses were tested in duplicate. Appropriate controls treated with solvents 0.9% NaCl or DMSO or with suramin, pentamidine, eflornithine, and fexinidazole (reference drugs purchased from Sigma-Aldrich and Fluorochem, UK) were added to each set of experiments. After a 69-hour incubation at 37° C., 10 μl of the viability marker Alamar Blue (Fisher) was added to each well, and the plates were incubated for 5 hour. The plates were read in a PerkinElmer ENSPIRE (Germany) microplate reader using an excitation wavelength of 530 nm and an emission wavelength of 590 nm. The IC50 was defined as the concentration of drug necessary to inhibit by 50% the activity of T. brucei brucei compared to the control. IC50 values were calculated using a non-linear regression analysis of dose-response curves performed using GraphPad Prism software (USA). IC50 values were calculated from three independent experiments.

[3] = test system: human telomeric sequence F21T; test: FRET-melting, F21T; settings: K+ condition, 2 μM compound, 0.2 μM oligonucleotide
[4] = test system: human duplex sequence FdxT; test: FRET-melting, FdxT; settings: duplex control, K+ condition, 2 μM compound, 0.2 μM oligonucleotide
[5] = test system: Plasmodium telomeric sequence FPf1T; test: FRET-melting, FPf1T; settings: K+ condition, 2 μM compound, 0.2 μM oligonucleotide
[6] = test system: Plasmodium telomeric sequence FPf8T; test: FRET-melting, FPf8T; settings: K+ condition, 2 μM compound, 0.2 μM oligonucleotide
[7] = test system: Trypanosoma 9 and 11 chromosomic sequence FTrypBT; test: FRET-melting, FTrypBT; settings: K+ condition, 2 μM compound, 0.2 μM oligonucleotide
Plasmodium falciparum W2 = test: In vitro antiplasmodial activity, SYBR Green I, strain W2; settings: Plasmodium falciparum, W2, 48 h, read-out: IC50 Plasmodium falciparum W2, chloroquine-resistant strain W2, 48-hour incubation
Procedure: (§1) The in vitro antiplasmodial activities were tested over concentrations ranging from 39 to 40 μm against culture-adapted Plasmodium falciparum: reference strains 3D7 and W2. […] The parasites were cultivated in RPMI medium (Sigma-Aldrich, Lyon, France) supplemented with 0.5% Albumax I (Life Technologies Corporation, Paisley, UK), hypoxanthine (Sigma-Aldrich), and gentamicin (Sigma-Aldrich) with human erythrocytes and were incubated at 37° C. in a candle jar, as described in Desjardins R E et al., Antimicrob Agents Chemother, 1979; 16:710-18.
(§2) The P. falciparum drug susceptibility test was carried out in 96-well flat bottom sterile plates in a final volume of 250 μL. After a 48-hour incubation with the drugs, quantities of DNA in treated and control cultures of parasites in human erythrocytes were quantified using the SYBR Green I (Sigma-Aldrich) fluorescence-based method as described in Bennett T N et al, Antimicrob Agents Chemother, 2004; 48:1807-10. Briefly, after incubation, plates were frozen at −20° C. until use. Plates were then thawed for 2 hours at room temperature, and 100 μL of each homogenized culture was transferred to a well of a 96-well flat bottom sterile black plate (Nunc, Inc., Rochester, NY) that contained 100 μL of the SYBR Green I lysis buffer (2×SYBR Green, 20 mM Tris base pH 7.5, 5 mM EDTA, 0.008% w/v saponin, 0.08% w/v Triton X-100). […] Plates were incubated for 1 hour at room temperature and then read on a fluorescence plate reader (Tecan, Grödig, Austria) using excitation and emission wavelengths of 485 and 535 nm, respectively. Concentrations inhibiting 50% of the parasite's growth (half maximal inhibitory concentration or IC50 values) were then calculated from the obtained experimental results by non-linear regression analysis of data from dose-response curves, using TableCurve 2D version 5.0 software (Systat Software, San Jose, CA). IC50 values are reported as means calculated from three independent experiments, as described in H. Kaddouri et al., Antimicrob.

[8] = test system: Plasmodium falciparum 3D7; test: In vitro antiplasmodial activity, SYBR Green I, strain 3D7; settings: Plasmodium falciparum, 3D7, 48 h, read-out: IC50 Plasmodium falciparum 3D7, chloroquine-sensitive strain 3D7, 48-hour incubation
Procedure: as §1, §2

[9] = 69-hour incubation, Alamar Blue

Row | SMILES | IC50 at 72 h [1] [nM] | IC50 ([2]; 69 h) [nM] | FRET-melting values in K+ conditions at 2 μM ΔTm F21T [3] [°C] | FRET-melting values in K+ conditions at 2 μM ΔTm FdxT [4] [°C] | FRET-melting values in K+ conditions at 2 μM ΔTm FPf1T [5] [°C] | FRET-melting values in K+ conditions at 2 μM ΔTm FPf8T [6] [°C] | FRET-melting values in K+ conditions at 2 μM ΔTm FtryBT [7] [°C] | IC50 (Plasmodium falciparum W2) [nM] | IC50 [8] [nM] | IC50 [2, 9] [nM]
1 | CN1CCN(CCCNCc2ccc(-c3nc(-c4ccc(CNCCCN5CCN(C)CC5)cc4)c4ccn(C)c4n3)cc2)CC1 [Compound 9B, 2,4-bis{4-[(3-(4-methylpiperazin-1-yl)propyl)aminomethyl]phenyl}-7-methyl-7H-pyrrolo[2,3-d]pyrimidine oxalate] | 39500 | 1000 ± 100 | 10.4 | 0.0 | 10.1 | 10.1 | 8.4 | 130 ± 50 | 17800 ± 3490 | –
2 | CN(C)CCCNCc1ccc(-c2nc(-c3ccc(CNCCCN(C)C)s3)nc3c2ccn3-c2ccccc2)cc1 [Compound 7B, 4-{4-[(3-Dimethylaminopropyl)aminomethyl]phenyl}-2-{5-[(3-dimethylaminopropyl)aminomethyl]thien-2-yl}-7-phenyl-7H-pyrrolo[2,3-d]pyrimidine oxalate] | 1910 | 630 ± 70 | 13.8 | −0.3 | 11.5 | 12.8 | 10.5 | 2390 ± 80 | 880 ± 240 | –
3 | CN1CCN(CCCNCc2ccc(-c3nc(-c4ccc(CNCCCN5CCN(C)CC5)cc4)c4sccc4n3)cc2)CC1 [Compound 30B, 2,4-Bis{4-[(3-(4-methylpiperazin-1-yl)propyl)aminomethyl]phenyl}thieno[3,2-d]pyrimidine oxalate] | 18900 | 750 ± 100 | 14.5 | 0.5 | 14.9 | 15.2 | 12.8 | 30 | 10800 ± 2950 | –
4 | CN(C)CCCNCc1ccc(-c2nc(-c3ccc(CNCCCN(C)C)cc3)c3ccsc3n2)cc1 [Compound 26B, 2,4-Bis{4-[(4-dimethylaminopropyl)aminomethyl]phenyl}thieno[2,3-d]pyrimidine oxalate] | 2790 | – | 14.1 | 0.3 | 11.2 | 13.2 | 8.6 | 9950 ± 1470 | 4460 ± 350 | 460 ± 40
5 | CN(C)CCCNCc1ccc(-c2nc(-c3ccc(CNCCCN(C)C)cc3)c3sccc3n2)cc1 [Compound 29B, 2,4-Bis{4-[(4-dimethylaminopropyl)aminomethyl]phenyl}thieno[3,2-d]pyrimidine oxalate] | 3190 | – | 19.0 | 1.8 | 20.1 | 20.9 | 17.1 | 2170 ± 410 | 1370 ± 240 | 140 ± 20
6 | CN1CCN(CCCNCc2ccc(-c3nc(Cl)nc4[nH]ccc34)cc2)CC1 [Compound 16B, 2-Chloro-4-{4-[(3-(4-methylpiperazin-1-yl)propyl)aminomethyl]phenyl}-7H-pyrrolo[2,3-d]pyrimidine oxalate] | 63500 | 1340 ± 250 | 0.8 | 0.1 | – | – | – | 25900 ± 4630 | 10500 ± 230 | –
7 | CN(C)CCCNCc1ccc(-c2nc(Cl)nc3c2ccn3-c2ccccc2)s1 [Compound 19B, 2-Chloro-4-{5-[(3-dimethylaminopropyl)aminomethyl]thien-2-yl}-7-phenyl-7H-pyrrolo[2,3-d]pyrimidine oxalate] | 1880 | 50 ± 10 | 6.2 | −1.8 | – | – | – | 4560 ± 560 | 1970 ± 360 | –
8 | CN(C)CCCNCc1ccc(-c2nc(NCCCN(C)C)nc3sccc23)cc1 [Compound 28B, 2-(3-Dimethylaminopropylamino)-4-{4-[(4-dimethylaminopropyl)aminomethyl]phenyl}thieno[2,3-d]pyrimidine oxalate] | 35200 | – | 2.41 | −0.77 | – | – | – | 11500 ± 2470 | 30 | 1100 ± 260
9 | CN(C)CCCNCc1ccc(-c2nc(Cl)nc3c2ccn3-c2ccccc2)cc1 [Compound 17B, 2-Chloro-4-{4-[(3-dimethylaminopropyl)aminomethyl]phenyl}-7-phenyl-7H-pyrrolo[2,3-d]pyrimidine oxalate] | 2870 | 20 | – | −0.2 | – | – | – | 290 ± 40 | 1010 ± 410 | –
10 | CN1CCN(CCCNCc2ccc(-c3nc(-c4ccc(CNCCCN5CCN(C)CC5)cc4)c4ccn(-c5ccccc5)c4n3)cc2)CC1 [Compound 2B, 2,4-bis{4-[(3-(4-methylpiperazin-1-yl)propyl)aminomethyl]phenyl}-7-phenyl-7H-pyrrolo[2,3-d]pyrimidine oxalate] | 1080 | 880 ± 70 | 19.6 | 0.7 | 19.1 | 20.0 | 17.3 | 1010 ± 160 | – | –
11 | CN(C)CCCNCc1ccc(-c2nc(NCCCN(C)C)nc3ccsc23)cc1 [Compound 31B, 2-(3-Dimethylaminopropylamino)-4-{4-[(4-dimethylaminopropyl)aminomethyl]phenyl}thieno[3,2-d]pyrimidine oxalate] | > 60000 | – | 2.0 | −0.7 | 1.8 | 2.9 | 1.8 | 5690 ± 1210 | 40 ± 10 | 2580 ± 210
12 | CN(C)CCCNCc1ccc(-c2nc(Cl)nc3[nH]ccc23)cc1 [Compound 15B, 2-Chloro-4-{4-[(3-dimethylaminopropyl)aminomethyl]phenyl}-7H-pyrrolo[2,3-d]pyrimidine oxalate] | 23700 | 510 ± 70 | 0.3 | 0.1 | – | – | – | 15200 ± 2080 | 10300 ± 220 | –
